Consider two molecules from paper PMC10222328 (Pharmaceuticals, 2023).

For one experiment, the target named is T1, COX-2 (Homo sapiens, UniProt P35354).
T1 construct: purchased Abcam, UK
T1 sequence (P35354 18-604): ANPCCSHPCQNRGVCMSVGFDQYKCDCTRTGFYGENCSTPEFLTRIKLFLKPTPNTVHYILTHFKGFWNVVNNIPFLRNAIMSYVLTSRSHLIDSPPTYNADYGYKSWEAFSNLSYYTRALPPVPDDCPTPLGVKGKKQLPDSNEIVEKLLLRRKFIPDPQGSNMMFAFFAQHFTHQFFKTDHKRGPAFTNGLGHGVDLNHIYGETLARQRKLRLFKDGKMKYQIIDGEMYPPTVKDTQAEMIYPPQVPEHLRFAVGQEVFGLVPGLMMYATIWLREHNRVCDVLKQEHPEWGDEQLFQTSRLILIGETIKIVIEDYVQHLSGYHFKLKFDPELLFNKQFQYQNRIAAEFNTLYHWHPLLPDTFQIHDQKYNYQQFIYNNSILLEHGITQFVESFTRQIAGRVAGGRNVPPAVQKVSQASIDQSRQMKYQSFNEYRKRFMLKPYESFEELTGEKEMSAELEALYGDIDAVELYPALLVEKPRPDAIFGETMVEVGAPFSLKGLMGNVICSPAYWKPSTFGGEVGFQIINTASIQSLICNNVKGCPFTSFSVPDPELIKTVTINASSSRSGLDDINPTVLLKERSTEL
Nature of the experiment: Fluorometric COX-2 inhibitor screening kit. Type of experiment: biochemical. How it is done:
(§1) COX-2 and 5-LOX inhibitory activities were tested using fluorometric COX-2 and 5-LOX inhibitor screening kits (Abcam, UK). These assays are based on the fluorometric detection of Prostaglandin G2 (a product generated by the COX enzyme) or on the fluorometric detection of intermediate generated by the 5-LOX enzyme. The experiments were conducted according to the manufacturers’ instructions.
(§2) For the determination of COX-2 inhibitory activity, tested compounds were dissolved in DMSO (5 mM stock solutions) and then diluted with the same solvent to obtain test solutions. Test solutions were further diluted 5X with COX assay buffer (2 µL of test solution and 8 µL COX assay buffer). […] Solvent control (SC) was prepared by adding 2 µL DMSO and 8 µL COX assay buffer, while sample (S) and enzyme control (EC) were prepared by adding 10 µL of diluted test solution and COX assay buffer, respectively, into assigned wells. For the determination of 5-LOX inhibitory activity, tested compounds were also dissolved in DMSO to prepare stock solutions with the same concentration (5mM), which were then diluted with the same solvent to obtain test solutions. Subsequently, test solutions were added to corresponding wells (2 µL).

Experiment [1] concerns carrageenan-induced rat paw edema. The experiment is described as follows: Carrageenan-induced rat paw edema model. It is filed as in vivo, Wistar albino rats. As to conditions: for Rat paw thickness: mean ± SD; for inhibition in vivo at 2.5 mg/kg / inhibition in vivo at 5 mg/kg / inhibition in vivo at 10 mg/kg: Rattus norvegicus, po. The protocol:
In vivo assessment of anti-inflammatory activity of compounds 1–7 was conducted in the carrageenan-induced rat paw edema model. Inflammation in all rats was induced by an intraplantar injection of […] of 0.5% carrageenan saline in the left hind paw. Two hundred male Wistar albino rats (180–210 g) were divided into seven experimental (n = 168 rats, 8 rats per subgroup) and two control groups (n = 32 rats, 8 rats per subgroup).
Experimental groups involved rats that received compounds 1–7, and they were divided into three subgroups: rats received compounds 1–7 per os in three doses (2.5 mg/kg, 5 mg/kg, and 10 mg/kg) dissolved in 1% DMSO for 60 min before inducing inflammation.
In order to quantify the anti-inflammatory effect, the thickness of the left paw tissue of each rat was measured at the following time intervals: immediately before inducing inflammation (moment 0) and 1, 2, 3, and 4 h (moments 1, 2, 3, and 4) after inflammation. Tissue thickness was measured in the middle of the rat paw using a digital vernier caliper (Aerospace, Beijing, China).

A further experiment concerns COX-1. As to conditions: COX-1 over COX-2; cited from earlier work.
The target in the next experiment is T2, 5-LOX (Homo sapiens, UniProt P09917).
T2 construct: purchased Abcam, UK
T2 sequence (P09917 1-674): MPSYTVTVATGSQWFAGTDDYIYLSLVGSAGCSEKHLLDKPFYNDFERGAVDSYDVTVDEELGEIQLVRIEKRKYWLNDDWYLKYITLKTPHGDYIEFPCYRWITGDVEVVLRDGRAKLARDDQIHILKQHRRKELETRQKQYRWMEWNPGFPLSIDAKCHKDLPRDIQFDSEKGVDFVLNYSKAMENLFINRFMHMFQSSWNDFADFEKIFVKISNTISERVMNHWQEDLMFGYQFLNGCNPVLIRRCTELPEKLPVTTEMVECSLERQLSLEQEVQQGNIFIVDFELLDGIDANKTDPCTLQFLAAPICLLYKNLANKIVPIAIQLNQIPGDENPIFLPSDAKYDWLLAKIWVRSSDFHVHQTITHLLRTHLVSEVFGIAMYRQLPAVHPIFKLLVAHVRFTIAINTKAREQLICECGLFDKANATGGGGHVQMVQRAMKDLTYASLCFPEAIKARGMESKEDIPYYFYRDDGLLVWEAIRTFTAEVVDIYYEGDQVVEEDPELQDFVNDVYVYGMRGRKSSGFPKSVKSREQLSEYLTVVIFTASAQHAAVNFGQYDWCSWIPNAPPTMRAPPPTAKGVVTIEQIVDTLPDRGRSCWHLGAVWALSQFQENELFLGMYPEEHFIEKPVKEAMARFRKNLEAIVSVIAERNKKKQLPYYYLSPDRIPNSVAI
Nature of the experiment: Fluorometric 5-LOX inhibitor screening kit. Type of experiment: biochemical. As to conditions: at 10 µM; mean ± standard error of two measurements; read-out: 5-LOX Percent of Inhibition. The protocol:
as §1, §2

By IC50 is commonly meant the midpoint of a concentration-inhibition curve. A lower IC50 goes with higher potency. As a reminder, the inhibition is the relative decrease from the control value, in per cent. The term inhibition in vivo denotes the drop in the measured response relative to a control, in per cent. A high value points to strong suppression. The molecule `COc1ccc2cc([C@H](C)C(=O)O)ccc2c1` [Naproxen, reference compound] yielded an IC50 against COX-2 of 0.2 ± 0.02 µM. In addition, the inhibition at 10 µM at COX-2 (read-out: COX-2 Percent of Inhibition) is 72.2 ± 1.4%. In addition, the Rat paw thickness in experiment [1] (2.5 mg/kg per os, 1 h after carrageenan) was 6.20 ± 0.10 mm; in experiment [1] (2.5 mg/kg per os, 2 h after carrageenan), 5.87 ± 0.12 mm; in experiment [1] (2.5 mg/kg per os, 3 h after carrageenan) it was 5.60 ± 0.17 mm; in experiment [1] (2.5 mg/kg per os, 4 h after carrageenan), 5.03 ± 0.25 mm; in experiment [1] (5.0 mg/kg per os, 1 h after carrageenan), 5.87 ± 0.23 mm; in experiment [1] (5.0 mg/kg per os, 2 h after carrageenan) it was 5.37 ± 0.31 mm. Besides, the Rat paw thickness is on record as 5.07 ± 0.35 mm in experiment [1] (5.0 mg/kg per os, 3 h after carrageenan); 4.83 ± 0.21 mm in experiment [1] (5.0 mg/kg per os, 4 h after carrageenan); 5.73 ± 0.20 mm in experiment [1] (10.0 mg/kg per os, 1 h after carrageenan); 5.40 ± 0.40 mm in experiment [1] (10.0 mg/kg per os, 2 h after carrageenan); 5.20 ± 0.30 mm in experiment [1] (10.0 mg/kg per os, 3 h after carrageenan); 4.80 ± 0.40 mm in experiment [1] (10.0 mg/kg per os, 4 h after carrageenan). In addition, the inhibition in vivo at 2.5 mg/kg is 18.9% in experiment [1] (1 h, 2.5 mg/kg per os, 1 h after carrageenan); 24.9% in experiment [1] (2 h, 2.5 mg/kg per os, 2 h after carrageenan); 25.1% in experiment [1] (3 h, 2.5 mg/kg per os, 3 h after carrageenan); 44.8% in experiment [1] (4 h, 2.5 mg/kg per os, 4 h after carrageenan). The inhibition in vivo at 5 mg/kg in experiment [1] (1 h, 5.0 mg/kg per os, 1 h after carrageenan) is 27.1%; in experiment [1] (2 h, 5.0 mg/kg per os, 2 h after carrageenan), 41.8%; in experiment [1] (3 h, 5.0 mg/kg per os, 3 h after carrageenan), 47.1%; in experiment [1] (4 h, 5.0 mg/kg per os, 4 h after carrageenan), 49.4%. Moreover, the inhibition in vivo at 10 mg/kg is 35.4% in experiment [1] (1 h, 10.0 mg/kg per os, 1 h after carrageenan); 43.3% in experiment [1] (2 h, 10.0 mg/kg per os, 2 h after carrageenan); 45.2% in experiment [1] (3 h, 10.0 mg/kg per os, 3 h after carrageenan); 56.3% in experiment [1] (4 h, 10.0 mg/kg per os, 4 h after carrageenan). Besides, the “Selectivity for COX-1” value in the experiment on COX-1 is “approximately five”.

Take `CC(c1cc2ccccc2s1)N(O)C(N)=O` (stereo not shown) [Zileuton, reference compound]: the inhibition at 10 µM at 5-LOX is 64.85 ± 0.39%.
